Read-outs that look alike come from different tables or passages of the source.
What was measured:
[1] = system: MV-AII-5; experiment: Dose-response CPE assay against AS-136A-adapted MV variant; conditions: read-out: EC50 (MV-AII-5); MV-Alaska variant adapted to grow in presence of RdRp inhibitor AS-136A; highest concentration assessed 37.5 μM
[2] = system: MV-Ibd; experiment: Dose-response CPE assay against AS-48-resistant MV strain; conditions: for EC50 (MV-Ibd): strain naturally resistant to MV fusion inhibitor AS-48, highest concentration assessed 37.5 μM
[3] = system: cells; experiment: Quantitative cytotoxicity assay; format: cell-based; conditions: for CC50: 24 h, absence of virus, highest concentration assessed 150 μM, averages of two experiments; for SI (CC50/EC50): specificity index, CC50 / EC50 against MV-Alaska
[4] = system: HPIV3; experiment: Dose-response CPE assay, Vero cells; format: cell-based, human parainfluenzavirus type 3; conditions: for EC50: read-out: EC50 (HPIV3)
[5] = system: CDV-752; experiment: Dose-response CPE assay, Vero-dogSLAM cells; format: cell-based, canine distemper virus; conditions: for EC50: read-out: EC50 (CDV-752)
[6] = Quantitative cytotoxicity assay; format: cell-based
[7] = system: MV-Alaska; experiment: Dose-response curves based on suppression of viral CPE; format: cell-based, measles virus; conditions: for Activity of re-synthesized compound versus original library substance: biotesting of chemically re-synthesized compound, data not shown
[8] = target: MV H and F envelope glycoproteins (Measles virus, UniProt P08362+P69353); experiment: cell-based
[9] = Vero cells, highest concentration assessed 37.5 μM
[10] = Vero-dogSLAM cells, highest concentration assessed 37.5 μM

Chain of MV H and F envelope glycoproteins (P08362 whole entry): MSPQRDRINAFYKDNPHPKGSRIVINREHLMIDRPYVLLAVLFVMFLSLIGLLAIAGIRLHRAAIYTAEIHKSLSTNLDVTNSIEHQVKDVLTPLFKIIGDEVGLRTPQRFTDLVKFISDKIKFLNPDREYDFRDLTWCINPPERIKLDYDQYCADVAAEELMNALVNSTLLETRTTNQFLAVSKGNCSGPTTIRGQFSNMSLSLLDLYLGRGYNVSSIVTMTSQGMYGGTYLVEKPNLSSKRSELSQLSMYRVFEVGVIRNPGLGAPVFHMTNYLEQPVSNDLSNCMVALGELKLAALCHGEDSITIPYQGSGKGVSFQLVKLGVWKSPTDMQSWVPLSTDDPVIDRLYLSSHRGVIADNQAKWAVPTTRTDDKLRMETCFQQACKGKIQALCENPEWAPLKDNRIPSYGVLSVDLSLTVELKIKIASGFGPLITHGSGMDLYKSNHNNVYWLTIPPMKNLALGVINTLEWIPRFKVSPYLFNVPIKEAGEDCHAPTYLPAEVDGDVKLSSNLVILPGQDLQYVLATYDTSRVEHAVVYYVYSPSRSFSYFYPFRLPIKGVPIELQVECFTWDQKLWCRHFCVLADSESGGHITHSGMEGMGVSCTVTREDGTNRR
Chain of MV H and F envelope glycoproteins (P69353 113-550): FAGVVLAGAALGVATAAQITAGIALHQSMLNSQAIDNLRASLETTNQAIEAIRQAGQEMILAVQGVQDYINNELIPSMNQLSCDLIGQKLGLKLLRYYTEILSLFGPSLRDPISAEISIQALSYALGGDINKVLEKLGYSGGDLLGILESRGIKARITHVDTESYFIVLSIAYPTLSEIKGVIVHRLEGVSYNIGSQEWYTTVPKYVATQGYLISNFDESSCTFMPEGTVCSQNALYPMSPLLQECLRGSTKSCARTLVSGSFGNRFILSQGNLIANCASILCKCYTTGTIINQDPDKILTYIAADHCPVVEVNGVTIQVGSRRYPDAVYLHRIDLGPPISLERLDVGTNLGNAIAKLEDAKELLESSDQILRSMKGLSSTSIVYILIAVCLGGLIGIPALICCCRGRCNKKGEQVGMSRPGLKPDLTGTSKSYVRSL
Chain of MV H and F envelope glycoproteins (P69353 24-112): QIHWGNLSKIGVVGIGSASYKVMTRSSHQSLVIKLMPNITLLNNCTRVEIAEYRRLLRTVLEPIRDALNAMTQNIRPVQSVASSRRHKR

Structure (SMILES)	EC50 [1] [µM]	EC50 (MV-Ibd) [2]	CC50 [3] [µM]	SI (CC50/EC50) [3]	EC50 (HPIV3) [4, 9]	EC50 (CDV-752) [5, 10]	EC50 [4, 9] [µM]	EC50 [5, 10] [µM]	further results
CS(=O)(=O)N1CCc2cc(-c3csc(NC(=O)Cc4cccs4)n3)ccc21 [compound 846635]	3.7 ± 0.1	no activity detected	~150	56	no activity detected	no activity detected			
CC1Cc2cc(-c3csc(NC(=O)Cc4cccs4)n3)ccc2N1S(C)(=O)=O (stereo not drawn) [compound 852230]	4.5 ± 0.2	no activity detected	~150	46	no activity detected	no activity detected			
COc1cccc(CNC(=O)c2cc3oc4ccccc4c3n2C)c1OC [compound 4242806]	2.1 ± 0.1		147	105			2 ± 0.1	2.1 ± 0.1	
CSc1cccc(NC(=O)Cn2cccc2)c1 [compound 4245209]	14.3 ± 0.8	no activity detected			no activity detected			31.1	
O=C(Cc1cccs1)Nc1nc2c(s1)CCCC2 [compound 4256670]									EC50 ([2]; Measles morbillivirus, read-out: EC50 (MV-Ibd)): 26.6 ± 9.3 µM; CC50 at 24 h [6]: ~150 µM; selectivity ratio [6]: 68; EC50 ([4]; Human respirovirus 3, Vero, in Homo sapiens): 5.8 ± 0.6 µM; EC50 ([7]; Measles morbillivirus, 96 h, read-out: EC50 (MV-Alaska)): 2.2 ± 0.3 µM; EC50 ([5]; canine distemper virus): 3.9 ± 0.2 µM; EC50 [8]: 22 µM; Suppression of reporter expression ([8]; at 5 μM): did not suppress reporter expression at all
Cc1ccc2[nH]c(=O)c(N3CCOCC3)c(-c3ccccc3)c2c1 [compound 4259333]	4.3 ± 0.3		118	36	no activity detected	no activity detected			
CSc1ccccc1NC(=O)Cn1c(-c2cscn2)nc2ccccc21 [compound 4261934]	3.9 ± 0.1		> 150	>63	no activity detected	no activity detected			
CNC(=O)c1ccc(OCc2ccccc2)c(OC)c1 [compound 4265637]	4.7 ± 0.3	no activity detected	> 150	>50	no activity detected			6.7 ± 0.1	
CCOC(=O)Cn1c(-c2nonc2NC(=O)c2ccccc2F)nc2ccccc21 [compound 7973070]	2 ± 0.2		~150	375			1.9 ± 0.1	1 ± 0.1	
CSc1nnc2c3ccccc3n(CCc3ccccc3)c2n1 [compound 7976354]	1 ± 0.1		> 150	>33			3.5 ± 0.1	0.9 ± 0.1	
Cc1ccc(N(Cc2ccc(C(=O)NC3CCCCC3)cc2)S(C)(=O)=O)cc1C [compound 14722514]	3.6 ± 1.6		~150	214	no activity detected	no activity detected			Activity of re-synthesized compound versus original library substance [7]: essentially identical to the original substances stored in the library
CS(=O)(=O)N1CCc2cc(-c3csc(NC(=O)Cc4ccccc4)n3)ccc21 [compound 14723513]	3.6 ± 0.2	no activity detected	> 150	>41	no activity detected			26.8 ± 8.7	
Cn1c(C(=O)NCc2ccccc2)cc2oc3ccccc3c21 [compound 14735307]	5.4 ± 1.6		> 150		no activity detected	no activity detected			
CCN(CC)C(=O)N1c2ccccc2C=Cc2ccccc21 [compound 14740150]			> 150	>34			3 ± 0.1	1.9 ± 0.1	
CC(=O)/C(C#N)=C1\NC(=O)C(Cc2ccc(C)c(C)c2)S1 (stereo not drawn) [compound 14741996]	7.7 ± 0.1		> 150	>47			3.9 ± 0.1	4.2 ± 0.1	
C=CCn1c(SCC(=O)N2CC(=O)Nc3ccccc32)nc2scc(-c3ccccc3)c2c1=O [compound 14743644]	4.6 ± 0.1		~150	56	no activity detected	no activity detected			

Structure (SMILES)	EC50 [1] [µM]	EC50 (MV-Ibd) [2]	CC50 [3] [µM]	SI (CC50/EC50) [3]	EC50 (HPIV3) [4, 9]	EC50 (CDV-752) [5, 10]	EC50 [4, 9] [µM]	EC50 [5, 10] [µM]	further results
C#CCn1c(S(=O)(=O)Cc2ccc(F)cc2)nc(-c2ccccc2)c1-c1ccccc1 [compound 17409378]	1.4 ± 0.3		26	37			1.7 ± 0.2		
COc1ccc([N+](=O)[O-])cc1NC(=O)CCc1ccccc1 [compound 17416393]	2.9 ± 0.5	no activity detected	> 150	>100	no activity detected			12.9 ± 0.7	
O=C(/C=C/c1cccs1)Nc1cccc(NC(=O)/C=C/c2cccs2)n1 [compound 17433375]	3.2 ± 0.1		70	19	no activity detected	no activity detected			
CC(=O)Nc1ccc(Nc2cc(C)nc3c(-c4ccccc4)cnn23)cc1 [compound 17505573]	1.6 ± 0.1	no activity detected	54	14	no activity detected	no activity detected			
O=C(Cc1cccs1)Nc1cc(SCCO)cc([N+](=O)[O-])c1 [compound 22402685]	1.6 ± 0.2	no activity detected	> 150	>79	no activity detected			2.1 ± 0.3	
Cc1cccc(-n2c(SCC(=O)Nc3ncc(Cl)cc3Cl)nc3ccccc32)c1 [compound 22404943]	0.5 ± 0.1		> 150	>214			0.6 ± 0.1	0.4 ± 0.1	
C=CCN=c1scc(-c2ccccc2)n1/N=C/c1ccccn1 [compound 22406106]			139	116					
CCN=c1scc(-c2ccccc2)n1/N=C/c1ccccn1 [compound 22406746]			~150	37			2 ± 0.1	2.3 ± 0.2	
COc1ccc(-n2c(SC(C)C(=O)Nc3ncc(Cl)cc3Cl)nc3ccccc32)cc1 (stereo not drawn) [compound 22407448]	0.1		> 150				0.2 ± 0.1		Activity of re-synthesized compound versus original library substance [7]: essentially identical to the original substances stored in the library
O=C(CSc1nc2ccccc2n1-c1ccccc1)Nc1ncc(Cl)cc1Cl [compound 22407466]			> 150	>71			1 ± 0.1	0.9 ± 0.1	
CC(=O)Nc1ccc(-c2csc(NC(=O)CCCc3cccs3)n2)cc1 [compound 22408576]	2 ± 0.1		> 150	>65	no activity detected	no activity detected			
CC(=O)Nc1ccc(-c2csc(NC(=O)C3CCN(S(=O)(=O)c4cccs4)CC3)n2)cc1 [compound 22410899]	3.8 ± 0.3		> 150	>39	no activity detected	no activity detected			
Cc1cccc2c(=O)cc(C)n(Cc3ccccc3)c12 [compound 22415156]	2.4 ± 0.2		> 150	>42	no activity detected			11 ± 0.1	
COc1cc(/C=C/C(=O)N2CCOCC2)ccc1OCc1ccccc1 [compound 22415419]	2.2 ± 0.3	no activity detected	> 150	>33	no activity detected			5 ± 0.2	
COc1cc(/C=C/C(=O)NC(C)C)ccc1OCc1ccccc1 [compound 22415706]	4.1	no activity detected			no activity detected			12.9	

— PMC2556223 (Journal of biomolecular screening, 2008)
